Assays:
LoVo xenograft tumor = LoVo xenograft tumor model; type: in vivo, athymic nude mice; settings: mice
Description: Female athymic nude mice aged 5 weeks were purchased from Beijing Vital River Laboratory Animal Technology Co., Ltd., and kept in the SPF Laboratory Animal Center of Dalian Medical University (Dalian, China). All animals were given free access to sterilized food and water and were habituated for 7 days before the experiments. All procedures were carried out in strict accordance with the recommendations established by the Animal Care and Ethics Committee of Dalian Medical University as well as the guidelines promulgated in the U.S. National Institutes of Health Guide for the Care and Use of Laboratory Animals. LoVo cells (LoVo/wt and LoVo/ mut, 5×10^6 in 100 μL PBS) were injected subcutaneously near the axillary fossa of each nude mouse. Two weeks later, when the formed tumor reached 3-4mm, the animals were divided randomly into three groups with 5 mice in each group. […] The tumors were measured with a caliper once every two days, and the tumor volume was calculated using the formula V = 1/2 (width^2 × length). The body weight of the animals was also recorded. After treatment with SHK for 15 days, all experimental mice were sacrificed and the tumors from each mouse were excised and their weight was measured. To determine the expression of the indicated proteins, the tumor tissues were fixed with 10% neutral formalin and embedded in paraffin. Then, 4 μm sections were stained with hematoxylin and eosin, in combination with specific antibodies (iNOS (1:100), COX-2 (1:50), IL-6 (1:100)), and TNFα (1:200)). The stained samples were examined under a Leica DM 4000B fluorescence microscope equipped with a digital camera. The other parts of the tumors were used to prepare tumor tissue lysates for western blot analysis.

MBP-IKKβ (701–745) = molecular target: T1, MBP-IKKβ (701–745) (Homo sapiens, UniProt O14920); test: MST binding assay to IKKβ
T1 construct: made in house; host or cells: E. coli BL21(DE3)
T1 sequence (O14920 701-745): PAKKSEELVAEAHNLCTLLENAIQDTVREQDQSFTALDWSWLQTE

[1] = tested on: NO release in LoVo and RKO cells; test: Nitric oxide production assay (Griess reagent); type: cell-based, human
Description: After overnight culture in a 96-well plate (1 × 10^4 cells in 100 μL medium per well), the cells were pre-treated with SHK for 1 hour and lipopolysaccharide for an additional 24 hours. The culture supernatant from each well was collected at the end of the experiment and used to measure NO production. The NO production was determined using a commercial NO assay kit on the basis of the Griess reaction (S0021, Beyotime Institute of Biotechnology, Shanghai, China) according to the manufacturer’s instructions.

CCD841 CoN cells = test: CCK-8 cell viability assay, normal colonic epithelial cells; type: cell-based, human; settings: 0.5–5 μM, 48 h
Description: Cell viability was determined using the CCK-8 assay. Briefly, 5×10³ cells were seeded into 96-well culture plates, allowed to adhere for overnight, and then changed to fresh medium containing various concentrations of SHK (0, 0.5, 1, 2 and 5 µM) dissolved in DMSO (final concentration, 0.1%). After incubation for 48 h, the CCK-8 reagent was added, and the absorbance was measured at 450 nm using an EnSpire® Multimode Plate Reader (Perkin Elmer, USA). The cell viability in the vehicle control groups was defined as 100%. Each assay was carried out in triplicate.

IKKβ = molecular target: T2, IKKβ (Homo sapiens, UniProt O14920); test: IKKβ kinase activity in LoVo cells (spectrophotometric kit); type: cell-based
T2 construct: endogenous in cells; host or cells: LoVo cells
T2 sequence (Q9Y6K9 whole entry partner): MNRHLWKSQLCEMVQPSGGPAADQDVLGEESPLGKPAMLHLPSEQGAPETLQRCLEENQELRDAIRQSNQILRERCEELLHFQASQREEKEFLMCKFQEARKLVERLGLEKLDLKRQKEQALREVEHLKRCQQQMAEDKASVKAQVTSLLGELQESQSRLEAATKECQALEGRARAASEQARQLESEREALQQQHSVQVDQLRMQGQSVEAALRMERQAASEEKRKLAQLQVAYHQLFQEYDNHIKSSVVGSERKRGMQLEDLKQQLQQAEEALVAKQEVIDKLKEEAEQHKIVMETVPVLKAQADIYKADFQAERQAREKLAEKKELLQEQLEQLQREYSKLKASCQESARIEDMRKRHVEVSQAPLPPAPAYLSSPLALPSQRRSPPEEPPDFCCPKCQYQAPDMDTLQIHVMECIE
T2 sequence (O14920 whole entry): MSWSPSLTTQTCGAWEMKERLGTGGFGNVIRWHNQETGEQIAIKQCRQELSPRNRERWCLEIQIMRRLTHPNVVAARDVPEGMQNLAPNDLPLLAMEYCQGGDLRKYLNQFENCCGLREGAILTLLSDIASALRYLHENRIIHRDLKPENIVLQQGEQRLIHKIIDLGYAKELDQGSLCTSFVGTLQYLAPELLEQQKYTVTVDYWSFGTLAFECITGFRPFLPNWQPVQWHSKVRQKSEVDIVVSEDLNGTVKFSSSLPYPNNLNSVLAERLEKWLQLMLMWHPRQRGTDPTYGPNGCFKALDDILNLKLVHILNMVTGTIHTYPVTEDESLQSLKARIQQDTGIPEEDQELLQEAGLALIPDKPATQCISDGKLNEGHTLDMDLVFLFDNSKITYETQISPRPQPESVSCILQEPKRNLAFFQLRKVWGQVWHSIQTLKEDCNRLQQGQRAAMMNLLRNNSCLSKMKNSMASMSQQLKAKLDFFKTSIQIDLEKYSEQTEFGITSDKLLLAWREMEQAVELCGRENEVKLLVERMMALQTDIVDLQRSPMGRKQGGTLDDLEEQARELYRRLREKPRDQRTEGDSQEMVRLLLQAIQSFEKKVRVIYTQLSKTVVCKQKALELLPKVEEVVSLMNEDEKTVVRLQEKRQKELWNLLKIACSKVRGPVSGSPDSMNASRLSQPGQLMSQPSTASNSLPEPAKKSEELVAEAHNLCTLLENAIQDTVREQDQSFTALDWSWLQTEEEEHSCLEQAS
Description: Fig. 3 Effect of SHK on NEMO/IKKβ/NF-κB signaling. a The protein levels of NEMO, p-IKKβ/IKKβ, and p-IκBα/IκBα in LoVo cells treated with the indicated doses of SHK were analyzed by western blotting. b The protein levels of NEMO, p-IKKβ/IKKβ, p-IκBα/IκBα protein in tumor tissues were analyzed by western blotting. c LoVo cells were co-transfected with pNFκB-luc containing a Renilla luciferase reporter (as internal control) for 24 h and then treated with SHK for 48 h. Luciferase activity was determined using a dual-luciferase reporter assay system. d The IKKβ kinase activity was assessed using a spectrophotometric quantitative detection kit in LoVo cells. The relative activity was calculated using the provided formula. e The subcellular localizations of p50/p65 in LoVo cells following 48 h of treatment with SHK was examined by confocal microscopy analysis. The protein levels of p65 and p50 in nucleus (f) and whole-cell lysates (g) were measured by western blot analysis. Lamin B1 and β-actin were used as controls for sample loading. h The binding of p65 and p50 to a COX-2 promoter probe was analyzed using a streptavidin-agarose pull-down assay. The data are presented as the means ± SD of at least three separate experiments. (*p < 0.05, **p < 0.01, SHK treatment group vs. vehicle control group)

LoVo cells = test: Real-time cell growth (xCELLigence) in IKKβ or NEMO depleted or mutant LoVo cells; type: cell-based, human; settings: SHK 1 μM

CC(C)=CC[C@@H](O)C1=CC(=O)c2c(O)ccc(O)c2C1=O [SHK, Shikonin]
tumor volume (LoVo xenograft tumor; 2.5 and 5 mg/kg daily): dramatically decreased
tumor weight (LoVo xenograft tumor; 2.5 and 5 mg/kg daily): dramatically decreased
side effects (body weight) (LoVo xenograft tumor; 2.5 and 5 mg/kg): slight side effects
Kd (MBP-IKKβ (701–745)): 15.2 ± 4 µM
release of NO [1]: dramatically decreased
growth inhibitory effect in normal colonic epithelial cells (CCD841 CoN cells): absent
phosphorylation and kinase activity of IKKβ (IKKβ): suppressed the phosphorylation and kinase activity of IKKβ in a dose-dependent manner
inhibitory effect on growth of single point mutation cells compared with wild-type (LoVo cells; LoVo cells rescued with L737A, M94A, Q98A or R101A): significantly weakened
inhibitory effect on growth of IKKβ or NEMO depletion cells (LoVo cells; LoVo cells with shRNA): significantly weakened

Source: paper PMC8904520, “Characterization of a small-molecule inhibitor targeting NEMO/IKKβ to suppress colorectal cancer growth” (Signal Transduction and Targeted Therapy, 2022)
